Measured values reported in paper PMC8861115, “Characterization and structural analyses of a novel glycosyltransferase acting on the β-1,2-glucosidic linkages” (The Journal of Biological Chemistry, 2022).
Where a chain is given by its changes, count along the chain named.

Legend:
IaSGT (IALB_1185) [1] = biological target: T1, IaSGT (IALB_1185) (Ignavibacterium album, UniProt I0AIT9); experiment: hexokinase/G6PDH thio-NAD+ coupled glucose release; type: biochemical; conditions: acceptor; donor Sop2 fixed 1 mM; pH 5.0, 37 °C
T1 construct: full length (no N-terminal signal peptide), his6-tag fusion from pET30a(+) NdeI/XhoI, E. coli BL21(DE3); homodimer
T1 sequence (I0AIT9 1-716): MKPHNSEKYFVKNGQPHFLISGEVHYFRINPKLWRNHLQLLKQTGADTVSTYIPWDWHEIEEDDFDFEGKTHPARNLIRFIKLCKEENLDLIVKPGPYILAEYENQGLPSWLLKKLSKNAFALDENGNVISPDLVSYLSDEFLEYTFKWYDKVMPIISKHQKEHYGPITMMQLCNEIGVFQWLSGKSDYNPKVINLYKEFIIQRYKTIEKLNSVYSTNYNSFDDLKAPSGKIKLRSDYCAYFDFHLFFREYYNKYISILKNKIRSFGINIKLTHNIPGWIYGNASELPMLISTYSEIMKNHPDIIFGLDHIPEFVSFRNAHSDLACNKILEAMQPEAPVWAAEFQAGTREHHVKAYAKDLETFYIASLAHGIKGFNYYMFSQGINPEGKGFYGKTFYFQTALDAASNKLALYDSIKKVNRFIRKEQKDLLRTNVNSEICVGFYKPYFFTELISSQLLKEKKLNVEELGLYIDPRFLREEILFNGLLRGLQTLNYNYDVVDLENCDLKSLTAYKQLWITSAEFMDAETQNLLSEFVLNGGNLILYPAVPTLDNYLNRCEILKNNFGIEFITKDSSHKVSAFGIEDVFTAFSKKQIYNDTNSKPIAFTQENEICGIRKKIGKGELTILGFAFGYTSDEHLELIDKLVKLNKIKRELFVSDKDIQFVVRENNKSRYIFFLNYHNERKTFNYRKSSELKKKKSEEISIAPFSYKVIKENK
Excerpt: hexokinase/G6PDH thio-NAD+ coupled glucose release on IaSGT (IALB_1185)

IaSGT (IALB_1185) [2] = biological target: T2, IaSGT (IALB_1185) (Ignavibacterium album, UniProt I0AIT9, E343G); experiment: X-ray crystal structure of complex; type: binding; conditions: subsites -1 and +1, subunit A only
T2 construct: full length (no N-terminal signal peptide), his6-tag fusion from pET30a(+) NdeI/XhoI, E. coli BL21(DE3); homodimer
T2 sequence (I0AIT9 1-716 E343G): T1 sequence (I0AIT9 1-716) with E343G

Row | SMILES | Km (IaSGT (IALB_1185) [1]) | X-ray crystal structure of complex (IaSGT (IALB_1185) [2])
1 | N#C[C@H](O[C@@H]1O[C@H](CO[C@@H]2O[C@H](CO)[C@@H](O)[C@H](O)[C@H]2O)[C@@H](O)[C@H](O)[C@H]1O)c1ccccc1 [Amygdalin] | 150 ± 20 µM | 
2 | OC[C@H]1NC[C@H](O)[C@@H](O)[C@@H]1O [DNJ, 1-deoxynojirimycin] |  | The electron densities of DNJ molecules were observed only in subunit A in the E343G mutant
